Source: PubChem BioAssay AID624361 (Broad Institute, 2012)
Results filed as inconclusive are left out. The source made the active and inactive calls. No rule for the calls is given here.

test system: not listed separately; test: LMP1-induced NF-kB luciferase signal inhibition – cell-based, EBV LMP1, dry powder, set 2, dose response (AID 624361); conditions: LMP1-induced NF-kappaB luciferase reporter cells, luminescence; at 30 µM (top of the series)

SMILES | activity change, negative = inhibition
C[C@H](NC(=O)C[C@@H]1C=C[C@H](NC(=O)Cc2ccccn2)[C@H](CO)O1)c1ccccc1 | -0.706% (inactive)

same assay, conditions: LMP1-induced NF-kappaB luciferase reporter cells, luminescence; at 35 µM (top of the series)

SMILES | activity change, negative = inhibition
C[C@H](NC(=O)C[C@H]1C=C[C@@H](NC(=O)Cc2ccccn2)[C@H](CO)O1)c1ccccc1 | -1.8% (inactive)
O=C(Cc1ccccn1)NCC[C@H]1CC[C@@H](NC(=O)Nc2ccc(Cl)cc2)[C@@H](CO)O1 | -0.381% (inactive)
O=C(Cc1ccccn1)NCC[C@H]1CC[C@H](NC(=O)Nc2ccc(Cl)cc2)[C@@H](CO)O1 | -4.61% (inactive)
CS(=O)(=O)Nc1ccc2c(c1)[C@@H]1C[C@H](CC(=O)NCC3CC3)O[C@H](CO)[C@@H]1O2 | -4.41% (inactive)
O=C(Cc1ccccn1)NCC[C@H]1CC[C@@H](NC(=O)Nc2ccc(Cl)cc2)[C@H](CO)O1 | -2.38% (inactive)
C[C@@H](NC(=O)C[C@H]1C=C[C@@H](NC(=O)Cc2ccccn2)[C@@H](CO)O1)c1ccccc1 | 0.795% (inactive)
O=C(Cc1ccccn1)NCC[C@@H]1CC[C@H](NC(=O)Nc2ccc(Cl)cc2)[C@@H](CO)O1 | -3.42% (inactive)
O=C(C[C@@H]1C[C@H]2c3cc(NS(=O)(=O)c4ccc(F)cc4)ccc3O[C@H]2[C@@H](CO)O1)NC1CCCCC1 | -2.44% (inactive)
C[C@@H](NC(=O)C[C@H]1C=C[C@H](NC(=O)Cc2ccccn2)[C@@H](CO)O1)c1ccccc1 | 9.43% (inactive)
O=C(C[C@@H]1C[C@@H]2c3cc(NC(=O)c4cccnc4)ccc3O[C@@H]2[C@H](CO)O1)NCC(F)(F)F | -2.29% (inactive)
C[C@@H](NC(=O)C[C@@H]1C=C[C@@H](NC(=O)Cc2ccccn2)[C@H](CO)O1)c1ccccc1 | 5.05% (inactive)
C[C@H](CO)N1C[C@H](C)[C@@H](CN(C)Cc2ccc(C(F)(F)F)cc2)Oc2ccc(NC(=O)Cc3ccccc3)cc2CC1=O | -11.3% (inactive)
C[C@@H](NC(=O)C[C@@H]1C=C[C@H](NC(=O)Cc2ccccn2)[C@@H](CO)O1)c1ccccc1 | 8.29% (inactive)
COc1ccccc1C(=O)Nc1ccc2c(c1)C(=O)N(C)[C@@H]1CC[C@H](CC(=O)NCCc3ccncc3)O[C@H]1CO2 | -6.13% (inactive)
CCC(=O)N1Cc2cc(C(=O)Nc3nccs3)nc(-c3cccc(-c4ccccc4OC)c3)c2[C@H]1CCO | -7.28% (inactive)
Cc1noc(C)c1S(=O)(=O)Nc1ccc2c(c1)C(=O)N([C@H](C)CO)C[C@H](C)[C@@H](CN(C)Cc1ccc(C(F)(F)F)cc1)OCCCC[C@@H](C)O2 | -11.1% (inactive)
C[C@@H]1CN([C@@H](C)CO)C(=O)c2c(c3ccccc3n2C)-c2ccccc2CO[C@H]1CN(C)C(=O)Nc1ccc(F)cc1 | -8.29% (inactive)
C[C@@H]1CN([C@@H](C)CO)C(=O)c2c(c3ccccc3n2C)-c2ccccc2CO[C@@H]1CN(C)C(=O)Nc1ccc(F)cc1 | -5.35% (inactive)
C/C=C/c1cccc(-c2nc(C(=O)Nc3nccs3)cc3c2[C@@H](CCO)N(C(=O)NC(C)C)C3)c1 | -17% (inactive)
C[C@H](NC(=O)C[C@@H]1C=C[C@@H](NC(=O)Cc2ccccn2)[C@H](CO)O1)c1ccccc1 | -0.475% (inactive)

SMILES | activity change, negative = inhibition
C[C@H](CO)N1C[C@H](C)[C@H](CN(C)Cc2ccc(Oc3ccccc3)cc2)Oc2ccc(NC(=O)CCCN(C)C)cc2C1=O | 16.2% (inactive)
C[C@H]1CN([C@@H](C)CO)C(=O)c2c(c3ccccc3n2C)-c2ccccc2CO[C@@H]1CN(C)C(=O)Nc1ccc(F)cc1 | -12.4% (inactive)
C[C@H](NC(=O)C[C@H]1C[C@@H]2c3cc(NC(=O)c4cccnc4)ccc3O[C@@H]2[C@@H](CO)O1)c1ccccc1 | 0.067% (inactive)
C[C@H](NC(=O)C[C@H]1C=C[C@H](NC(=O)Cc2ccccn2)[C@@H](CO)O1)c1ccccc1 | 3.66% (inactive)
CO[C@H]1CN(C)C(=O)c2ccc(NC(=O)C3CC3)cc2OC[C@H](C)N(C(=O)c2ccccn2)C[C@H]1C | -14% (inactive)
C[C@@H]1CN([C@H](C)CO)C(=O)c2c(c3ccccc3n2C)-c2ccccc2CO[C@@H]1CN(C)C(=O)Nc1ccc(F)cc1 | -8.91% (inactive)
C[C@@H](NC(=O)C[C@H]1C[C@@H]2c3cc(NC(=O)c4cccnc4)ccc3O[C@@H]2[C@@H](CO)O1)c1ccccc1 | -0.38% (inactive)
COC(=O)C[C@H]1C[C@H]2c3cc(NC(=O)CN(C)C)ccc3O[C@H]2[C@H](CO)O1 | -4.37% (inactive)
C[C@H](CO)N1C[C@H](C)[C@H](CN(C)Cc2ccc(C(F)(F)F)cc2)Oc2ccc(NC(=O)Cc3ccccc3)cc2CC1=O | 4.01% (inactive)
C[C@@H](NC(=O)C[C@@H]1C=C[C@@H](NC(=O)Cc2ccccn2)[C@@H](CO)O1)c1ccccc1 | 9.33% (inactive)
C[C@H]1CN([C@@H](C)CO)C(=O)Cc2cc(NC(=O)Cc3ccccc3)ccc2O[C@H]1CN(C)Cc1ccc(C(F)(F)F)cc1 | 11.5% (inactive)
CS(=O)(=O)Nc1ccc2c(c1)[C@H]1C[C@@H](CC(=O)NCC3CC3)O[C@@H](CO)[C@H]1O2 | 8.63% (inactive)
O=C(Cc1ccccn1)NCC[C@@H]1CC[C@@H](NC(=O)Nc2ccc(Cl)cc2)[C@@H](CO)O1 | 1.94% (inactive)
O=C(C[C@H]1C[C@@H]2c3cc(NS(=O)(=O)c4ccc(F)cc4)ccc3O[C@@H]2[C@H](CO)O1)NC1CCCCC1 | -1.53% (inactive)
O=C(Cc1ccccn1)NCC[C@H]1CC[C@H](NC(=O)Nc2ccc(Cl)cc2)[C@H](CO)O1 | -1.01% (inactive)
COc1ccccc1CNC(=O)C[C@H]1C[C@@H]2c3cc(NC(=O)CN(C)C)ccc3O[C@@H]2[C@@H](CO)O1 | 0.74% (inactive)
C[C@H](NC(=O)C[C@H]1C=C[C@@H](NC(=O)Cc2ccccn2)[C@@H](CO)O1)c1ccccc1 | 11% (inactive)
CC(C)(C)[S@@](=O)N1Cc2cc(C(=O)NCCc3ccncc3)nc(-c3cccc(-c4cccnc4)c3)c2[C@H]1CCO | -15% (inactive)
COC(=O)C[C@@H]1C[C@@H]2c3cc(NC(=O)CN(C)C)ccc3O[C@@H]2[C@@H](CO)O1 | -0.64% (inactive)

test system: LMP1-induced NF-kappaB luciferase reporter cells, luminescence; test: as above; conditions: not given

SMILES | AC35
O=C(Nc1ccc(C(F)(F)F)cc1)Nc1ccc2c(c1)[C@H]1C[C@@H](CC(=O)N3CCc4ccccc4C3)O[C@@H](CO)[C@H]1O2 | 21.7 µM
Cc1noc(C)c1S(=O)(=O)Nc1ccc2c(c1)C(=O)N([C@H](C)CO)C[C@@H](C)[C@H](CN(C)Cc1ccc(C(F)(F)F)cc1)OCCCC[C@H](C)O2 | 31.2 µM
O=C(C[C@@H]1CC[C@H]2[C@@H](COC[C@H](O)CN2Cc2ccc(Oc3ccccc3)cc2)O1)N1CCc2ccccc2C1 | 25.7 µM
O=C(C[C@@H]1CC[C@@H]2[C@H](COC[C@@H](O)CN2Cc2ccc3c(c2)OCO3)O1)Nc1ccc(-c2ccccc2)cc1 | 10 µM
C[C@H](CO)N1C[C@H](C)[C@@H](CN(C)S(=O)(=O)c2cccc(F)c2)Oc2ncc(C#CC3CCCCC3)cc2C1=O | 35.3 µM
COc1ccc(-c2cccc(-c3nc(C(=O)NCC(F)(F)F)cc4c3[C@H](CCO)N([S@@](=O)C(C)(C)C)C4)c2)cc1 | 21.5 µM
